Test results taken from patent US20240131001A1, “PHARMACEUTICAL APPLICATION OF FUSED RING PHENOLIC COMPOUNDS” (RISEN (SUZHOU) PHARMA TECH CO. LTD., priority 2020, published 2024).
Where two headings read alike, the source gives them in different places.

Experiments:
[1] = tested on: PPK; test: PPK inhibitor screening assay (Table 1, PPK isoform not given); format: biochemical, Pseudomonas aeruginosa; conditions: PPK isoform not stated; for IC50: read-out: IC50 Values for PPK Inhibition
Text: (§1) In order to evaluate the inhibitory effect of the compounds on PPKs, the PPK1, PPK2A, PPK2B and PPK2C were used respectively to test the above compounds using a kit described in an article (Liang Peng et al. & Ning Sun (2020) Discovery and antibacterial study of potential PPK1 inhibitors against uropathogenic E. coli, Journal of Enzyme Inhibition and Medicinal Chemistry, 35:1, 1224-1232).

[2] = target: PPK1 (Pseudomonas aeruginosa, UniProt P0DP44); test: PPK inhibitor screening assay, PPK1; format: biochemical
PPK1, sequence (P0DP44 whole entry): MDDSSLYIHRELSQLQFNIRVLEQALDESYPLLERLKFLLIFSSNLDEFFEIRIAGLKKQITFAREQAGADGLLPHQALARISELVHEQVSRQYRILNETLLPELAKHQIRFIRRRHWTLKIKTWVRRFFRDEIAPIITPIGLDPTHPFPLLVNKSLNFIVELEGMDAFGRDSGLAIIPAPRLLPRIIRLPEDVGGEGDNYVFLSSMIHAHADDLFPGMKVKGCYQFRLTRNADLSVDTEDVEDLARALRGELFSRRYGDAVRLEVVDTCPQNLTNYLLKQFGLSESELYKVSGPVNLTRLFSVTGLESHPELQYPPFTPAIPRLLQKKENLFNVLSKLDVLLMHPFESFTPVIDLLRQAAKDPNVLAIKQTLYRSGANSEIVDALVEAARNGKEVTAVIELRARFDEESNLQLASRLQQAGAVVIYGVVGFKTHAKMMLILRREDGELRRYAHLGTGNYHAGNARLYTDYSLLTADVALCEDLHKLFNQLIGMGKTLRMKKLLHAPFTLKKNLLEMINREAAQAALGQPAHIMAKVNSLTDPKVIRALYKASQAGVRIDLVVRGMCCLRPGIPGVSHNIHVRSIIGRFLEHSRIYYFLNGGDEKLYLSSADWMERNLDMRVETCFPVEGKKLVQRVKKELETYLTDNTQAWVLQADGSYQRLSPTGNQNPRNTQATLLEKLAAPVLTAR
Text: as §1

[3] = target: PPK2B (Pseudomonas aeruginosa, UniProt Q9I154); test: PPK inhibitor screening assay, PPK2B; format: biochemical
PPK2B, sequence (Q9I154 whole entry): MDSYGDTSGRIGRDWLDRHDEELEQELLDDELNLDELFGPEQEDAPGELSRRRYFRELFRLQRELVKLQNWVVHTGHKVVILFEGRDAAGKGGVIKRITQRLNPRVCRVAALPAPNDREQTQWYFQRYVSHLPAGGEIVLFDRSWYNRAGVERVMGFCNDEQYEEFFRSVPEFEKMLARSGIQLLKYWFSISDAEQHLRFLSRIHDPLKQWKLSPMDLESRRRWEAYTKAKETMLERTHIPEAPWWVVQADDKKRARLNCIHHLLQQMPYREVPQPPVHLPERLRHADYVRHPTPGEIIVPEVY
Text: as §1

[4] = target: PPK2C (Pseudomonas aeruginosa, UniProt Q9HYF1); test: PPK inhibitor screening assay, PPK2C; format: biochemical
PPK2C, sequence (Q9HYF1 whole entry): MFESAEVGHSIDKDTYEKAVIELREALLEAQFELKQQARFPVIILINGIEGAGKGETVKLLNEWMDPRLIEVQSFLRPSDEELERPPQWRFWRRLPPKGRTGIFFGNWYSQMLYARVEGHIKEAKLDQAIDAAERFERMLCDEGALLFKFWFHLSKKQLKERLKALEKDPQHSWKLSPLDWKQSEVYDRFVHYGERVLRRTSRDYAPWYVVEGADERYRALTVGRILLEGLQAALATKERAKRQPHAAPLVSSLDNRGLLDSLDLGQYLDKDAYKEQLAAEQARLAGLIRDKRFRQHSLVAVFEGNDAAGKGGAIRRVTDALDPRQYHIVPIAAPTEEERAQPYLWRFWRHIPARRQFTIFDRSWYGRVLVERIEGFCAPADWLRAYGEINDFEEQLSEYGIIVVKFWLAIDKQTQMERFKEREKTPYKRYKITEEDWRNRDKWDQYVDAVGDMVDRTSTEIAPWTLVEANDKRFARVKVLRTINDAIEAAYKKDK
Text: as §1

[5] = target: PPK2A (Pseudomonas aeruginosa, UniProt Q9I6Z1); test: PPK inhibitor screening assay, PPK2A; format: biochemical
PPK2A, sequence (Q9I6Z1 whole entry): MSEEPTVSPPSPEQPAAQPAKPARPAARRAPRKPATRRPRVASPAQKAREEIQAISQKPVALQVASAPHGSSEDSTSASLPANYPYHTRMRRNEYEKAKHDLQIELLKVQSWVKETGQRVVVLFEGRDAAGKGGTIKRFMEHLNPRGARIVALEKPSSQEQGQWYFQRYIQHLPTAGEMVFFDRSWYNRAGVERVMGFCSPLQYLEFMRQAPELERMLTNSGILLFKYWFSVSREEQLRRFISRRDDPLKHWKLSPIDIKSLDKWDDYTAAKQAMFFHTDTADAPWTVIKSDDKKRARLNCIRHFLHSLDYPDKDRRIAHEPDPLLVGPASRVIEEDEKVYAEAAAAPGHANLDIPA
Text: as §1

[6] = tested on: human embryonic kidney cells (HEK239T); test: HEK cytotoxicity test (Trypan blue staining cell viability assay); format: cell-based; conditions: for relative viability rate: 100 μM, relative to DMSO; for cytotoxicity: up to 100 μM
Protocol: FIG. 4: Toxicity Assay of Compound 4 and Compound B on Human Embryonic Kidney Cells (HEK Cells): Relative Viability in the Presence of DMSO (Control), Compound B (100 μM), and Compound 4 (100 μM).
The cytotoxicity of the compounds was assessed in cultured human embryonic kidney cells (HEK239T) using the Trypan blue staining cell viability assay. The blank solvent DMSO, compound B, and compound 4 were tested, respectively.

[7] = tested on: Pseudomonas aeruginosa; test: Biofilm testing; format: cell-based; conditions: 100 μM compound
Protocol: FIG. 2: Effect of Compound 4 on Biofilm Formation in Different Pseudomonas Aeruginosa Strains. A: absorbance. The experimental concentration of compound 4 was 100 μM, and “−” or “+” indicates the absence or presence of compound 4; WT: wild-type strain; Δ ppk 1 is the PPK1 knocked out strain; Δ ppk2A, Δppk2B and Δppk2C are the strains with PPK2A, PPK2B, PPK2C knocked out; Δppk1, Δppk2AΔppk2B, Δppk2C are the strains with PPK1, PPK2A, PPK2B and PPK2C knocked out.
Pseudomonas aeruginosa can form biofilm in culture medium. Four groups of LB liquid media were set respectively, among them, group A was inoculated with wild-type Pseudomonas aeruginosa (WT); group B was inoculated with PPK1 knocked out Pseudomonas aeruginosa (A ppkl); group C was inoculated with PPK2A, PPK2B and PPK2C knocked out Pseudomonas aeruginosa (Δ ppk 2A, Δ ppk 2B, Δ ppk 2C); group D was inoculated with PPK1 and PPK2A, PPK2B and PPK2C knocked out Pseudomonas aeruginosa (Δ ppk1, Δ ppk 2Δ A ppk 2B, Δ ppk 2C). After the four groups were infected with Pseudomonas aeruginosa, each group was further divided into two groups, with one group added with DMSO (−) as the control, the other group added with 100 μm compound 4 (+). […] And this biofilm formed in the culture medium of groups A, B, C and D was analyzed using 570 nm visible light.

[8] = tested on: Pseudomonas aeruginosa; test: Nematode survival test; format: in vivo; conditions: Caenorhabditis elegans infected with wild-type Pseudomonas aeruginosa, six days
Text: FIG. 3: Effect of Compound 4 on the Survival Rate of Nematodes Infected with Pseudomonas Aeruginosa.
Caenorhabditis elegans were divided into five groups A, B, C, D, E, and then subjected to modeling respectively. Caenorhabditis elegans in group A and B were infected with wild-type (WT) Pseudomonas aeruginosa. Group A served as the DMSO control group and group B as compound 4 treatment group. Caenorhabditis elegans in groups C and D were infected with Pseudomonas aeruginosa which was knocked out of all PPK (ΔpolyP, Δppk1Δppk2ΔAppk2BΔ ppk 2C), where group C was DMSO control group and group D served as compound 4 treatment group; and group E was infected with Escherichia coli (0P50E. Coli). After modeling, Caenorhabditis elegans in groups A and C were continuously treated with DMSO, and those in groups B, D and E were continuously treated with compound 4. The environment and conditions were consistent across the five groups. Six days later, the survival rate of nematodes in five groups was calculated.

## O=C1OC2(c3ccc(O)cc3Oc3cc(O)ccc32)c2ccccc21 [D, reference compound]
[1]
  IC50: > 200 µM

## O=S1(=O)OC2(c3ccccc31)c1ccc(O)c(O)c1Oc1c2ccc(O)c1O [Compound 5]
[1]
  IC50: 26.3 µM
[2]; read-out: IC50 PPK1
  IC50: 26 µM
[3]
  IC50: 31 µM
[4]
  IC50: 273 µM
[5]
  IC50: 24 µM

## O=c1c(O)c(-c2ccc(O)cc2O)oc2cc(O)cc(O)c12 [Compound A, reference compound]
[1]
  IC50 Values for PPK Inhibition: Inactive

## O=c1oc2c(O)c(O)cc3c(=O)oc4c(O)c(O)cc1c4c23 [Compound 3]
[1]
  IC50: 9 µM
[2]; read-out: IC50 PPK1
  IC50: 20 µM
[3]
  IC50: 48 µM
[5]
  IC50: 50 µM

## Cc1c(C2(c3cc(Br)c(O)c(Br)c3C)OS(=O)(=O)c3ccccc32)cc(Br)c(O)c1Br [Compound F, reference compound]
[1]
  IC50 Values for PPK Inhibition: Inactive

## O=c1c(O)c(-c2ccc(O)c(O)c2)oc2cc(O)cc(O)c12 [Compound G, reference compound]
[1]
  IC50: 177 µM

## C[C@@H]1O[C@@H](OC[C@H]2O[C@@H](Oc3c(-c4ccc(O)c(O)c4)oc4cc(O)cc(O)c4c3=O)[C@H](O)[C@@H](O)[C@@H]2O)[C@H](O)[C@H](O)[C@H]1O [Compound H, reference compound]
[1]
  IC50 Values for PPK Inhibition: Inactive

## O=S1(=O)OC2(c3ccccc31)c1cc(Br)c(O)c(O)c1Oc1c2cc(Br)c(O)c1O [Compound 6]
[1]
  IC50: 7.59 µM

## O=c1cc(-c2cc(O)c(O)c(O)c2-c2ccsc2)oc2c(O)c(O)ccc12 [Compound 10]
[1]
  IC50: 36 µM

## O=c1oc2c(O)c(O)c(O)c3c(=O)oc4c(O)c(O)cc1c4c23 [Compound 2]
[1]
  IC50: 8 µM
[2]; read-out: IC50 PPK1
  IC50: 20 µM
[3]
  IC50: 59 µM

## O=c1oc2cc(O)ccc2c2ccc(O)c(O)c12 [C, reference compound]
[1]
  IC50: > 100 µM

## O=C(O)c1ccc2c(c1)C1(OC2=O)c2ccc(O)cc2Oc2cc(O)ccc21 [E, reference compound]
[1]
  IC50: > 200 µM

## O=c1oc2c(O)c(O)ccc2c2ccc(O)c(O)c12 [Compound B, reference compound]
[1]
  IC50: 150 µM
[2]
  IC50: 120 µM
[6]
  relative viability rate: approximately 35%
  cytotoxicity: caused a large number of cell death

## O=c1c(O)c(-c2cc(O)c(O)c(O)c2)oc2cc(O)cc(O)c12 [Compound 7]
[1]
  IC50: 39 µM

## O=c1cc(-c2cc(O)c(O)c(O)c2Br)oc2c(O)c(O)ccc12 [Compound 1]
[1]
  IC50: 6 µM

## O=C1OC2(c3ccccc31)c1ccc(O)c(O)c1Oc1c2ccc(O)c1O [Compound 4]
[7]; PPK knocked out strains
  inhibitory effect on PPK1 and PPK2 seen in biofilm test: not only inhibited PPK1, but also exhibited a good inhibitory effect on PPK2
[7]; wild-type Pseudomonas aeruginosa, 37° C., 24 h
  biofilm formation (570 nm absorbance): could reduce the formation of biofilm
[1]
  IC50: 17 µM
[2]; read-out: IC50 PPK1
  IC50: 17 µM
[3]
  IC50: 20 µM
[4]
  IC50: 165 µM
[5]
  IC50: 16 µM
[6]
  relative viability rate: ~100%
  cytotoxicity: no cytotoxicity
[8]
  mortality of nematodes: significantly reduced
